In patent US20200289480A1, “PERGOLIDE FOR USE IN THE TREATMENT OF EYE DISEASES ASSOCIATED WITH AN ELEVATED LEVEL OF VASCULAR ENDOTHELIAL GROWTH FACTOR (VEGF) AND PHARMACEUTICAL COMPOSITION CONTAINING PERGOLIDE” (priority 2017, published 2020):

Legend:
[1] = test system: pathological blood vessels (abnormal angiogenesis) induced with CoCl2; assay: zebrafish embryo model, CoCl2-induced abnormal angiogenesis; format: in vivo, zebrafish (Danio rerio); conditions: for effect on the development of pathological blood vessels: lower concentrations (below 2.5 μmol: 50 nmol, 100 nmol, 500 nmol, 1 μmol); for effect on the development of pathological blood vessels / inhibition of growth of pathological eye blood vessels / inhibition of growth of ventral vessels: CoCl2 5 mM; for inhibitory effect compared with other agents: qualitative comparison in the angiogenesis model
Procedure: (§1) In studies on the effect of various substances on VEGF release and action, among others, a laboratory model using zebrafish (Danio rerio) is employed. The study tested 3 substances with potential inhibitory activity towards VEGF release and action which belong to the group of dopaminergic receptor D2 agonists—bromocriptine, cabergoline and pergolide. The study was conducted on the model using transgenic zebrafish embryos (Zebrafish Fli strain) with labelled blood system, illuminating under the fluorescent microscope. Photographic documentation was collected using Stereo Discover v8 fluorescent microscope, fluorescence 200c hxp, from Carl Zeiss Microscopy GmbH. During the study, the development of normal blood vessels and pathological blood vessels (abnormal angiogenesis) was observed. Abnormal angiogenesis was induced with the use of cobalt chloride (CoCl2) in a dose of 5 mM which was administered to the culture medium. The study tested the inhibitory effect of bromocriptine, cabergoline and pergolide on the development of normal blood vessels, as well as the inhibition of abnormal angiogenesis in 5 increasing concentrations of these substances: 50 nmol, 100 nmol, 500 nmol, 1 μmol, 2.5 μmol, dissolved in dimethyl sulfoxide (DMSO) and administered to the culture medium. Any changes in the development of natural (FIG. 1) and pathological blood vessels (FIG. 2) were recorded 72 an 96 hours after the administration of a tested substance and a tested substance with CoCl2, respectively. The level of inhibition of normal and pathological blood vessels development in tested embryos was compared to the activity of bevacizumab (Avastin) at the concentration of 2.5 μg/ml, which is an anti-VEGF recombinant humanised monoclonal antibody (FIGS. 3). 72 and 96 after CoCl2 administration, the increase in the number of pathological eye blood vessels and the abnormal morphology thereof in the eyes (FIG. 2) as well as of ventral vessels (FIGS. 4 and 5) was observed.

[2] = test system: development of normal blood vessels; assay: zebrafish embryo model, development of normal blood vessels; format: in vivo, zebrafish (Danio rerio); conditions: for effect on the development of normal blood vessels: lower concentrations (below 2.5 μmol: 50 nmol, 100 nmol, 500 nmol, 1 μmol)
Procedure: as §1, with “3).” for “3). 72 and 96 after CoCl2 administration, the increase in the number of pathological eye blood vessels and the abnormal morphology thereof in the eyes (FIG. 2) as well as of ventral vessels (FIGS. 4 and 5) was observed.”

[3] = 2.5 μmol in culture medium, recorded 72 and 96 hours
[4] = 2.5 μmol in culture medium, transgenic Zebrafish Fli embryos, recorded 72 and 96 hours

Molecule | effect on the development of pathological blood vessels [1] | effect on the development of normal blood vessels [2] | inhibition of CoCl2-induced abnormal vascular growth (eye) ([1]; 2.5 μmol, 96 hours, FIG. 3) | inhibition of growth of pathological eye blood vessels ([1]; 1.0 μmol in culture medium) | inhibition of growth of ventral vessels ([1]; 1.0 μmol in culture medium) | inhibition of growth of pathological eye blood vessels [1, 3] | inhibition of growth of ventral vessels [1, 3] | inhibitory effect on the development of normal and pathological blood vessels (overall conclusion) ([1]; conclusion from all concentrations tested) | inhibitory effect compared with other agents [1] | inhibition of growth of normal eye blood vessels ([2]; 1.0 μmol in culture medium) | inhibition of normal ventral vessels growth ([2]; 1 μmol, 72 hours, FIG. 9) | inhibition of growth of normal eye blood vessels [2, 4] | inhibition of abnormal ventral vessels growth ([1]; 2.5 μmol, 72 hours, FIG. 8) | effect on the development of ventral vessels ([1]; lower concentrations (below 2.5 μmol))
CC(C)C[C@H]1C(=O)N2CCC[C@H]2[C@]2(O)O[C@](NC(=O)[C@@H]3C=C4c5cccc6[nH]c(Br)c(c56)C[C@H]4N(C)C3)(C(C)C)C(=O)N12 [bromocriptine] | no inhibitory effect | no inhibitory effect |  |  |  |  |  |  |  |  |  |  |  | 
bevacizumab |  |  | Inhibition |  |  |  |  |  |  |  |  |  |  | 
CCCN1C[C@H](CSC)C[C@@H]2c3cccc4[nH]cc(c34)C[C@H]21 [pergolide] |  |  |  | full inhibition | full inhibition | full inhibition | full inhibition | potent inhibitory effect | more potent than for known agents | partial inhibition | Partial inhibition | full inhibition |  | 
C=CCN1C[C@H](C(=O)N(CCCN(C)C)C(=O)NCC)C[C@@H]2c3cccc4[nH]cc(c34)C[C@H]21 [cabergoline] | no significant effect | no significant effect |  |  |  | full inhibition | full inhibition |  | more potent compared to bromocriptine |  |  | partial inhibition | Full inhibition | no significant effect
